PubChem BioAssay (NCI)
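Results reflect a 48-hour exposure of cells in 96-well plates to compound at five concentrations. At the TGI there is no net growth.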

Columns and labels:
Experiment in all cases: NCI-60 cell line screen, 48 h
COLO 205 colon = system: COLO 205 colon
UO-31 renal = system: UO-31 renal
MDA-N = system: MDA-N
OVCAR-4 ovarian = system: OVCAR-4 ovarian
MCF7 breast = system: MCF7 breast
OVCAR-3 ovarian = system: OVCAR-3 ovarian
A498 renal = system: A498 renal
SR leukemia = system: SR leukemia
SF-268 CNS = system: SF-268 CNS
UACC-257 melanoma = system: UACC-257 melanoma

Compound	TGI (COLO 205 colon)	TGI (UO-31 renal)	TGI (MDA-N)	TGI (OVCAR-4 ovarian)	TGI (MCF7 breast)	TGI (OVCAR-3 ovarian)	TGI (A498 renal)	TGI (SR leukemia)	TGI (SF-268 CNS)	TGI (UACC-257 melanoma)
Oc1cccc2c(Br)ccnc12	27.3 µM	21.6 µM	> 50.4 µM	10.2 µM	> 31.6 µM	7.81 µM	39.1 µM	4.31 µM	14.2 µM	16.1 µM
[N-]=[N+]=Nc1nc2ccccc2c(N=[N+]=[N-])c1Cl	> 100 µM	> 100 µM	> 100 µM	> 100 µM	> 100 µM	> 100 µM	46.9 µM	> 100 µM	> 100 µM	> 100 µM
Clc1ccc(-c2nn3c(COc4cccc(OCc5nnc6sc(-c7ccc(Cl)cc7)nn56)c4)nnc3s2)cc1	82.9 µM	39.6 µM	36.4 µM	27.6 µM	27.2 µM	44 µM	61.8 µM	88.9 µM	> 100 µM	62.1 µM
COc1cccc(NC(=O)CC(=O)n2nc(-c3ccccc3)c(N=Nc3ccc(Cl)cc3)c2-c2ccccc2)c1	61.6 µM	30.8 µM	> 100 µM	> 100 µM	45.3 µM	99.1 µM	> 83.1 µM	> 73.2 µM	49.4 µM	> 100 µM
NC1CCCCC1NCCNC1CCCCC1N (stereo not given)	30.8 µM	> 100 µM	> 100 µM	> 100 µM	> 100 µM	> 100 µM	> 100 µM	> 100 µM	> 100 µM	> 100 µM
COC(=O)[C@@H](NS(=O)(=O)CC12CCC(CC1)C2(C)C)C(C)(C)C	> 100 µM	> 100 µM	> 100 µM	> 100 µM	> 100 µM	> 100 µM	> 100 µM	> 100 µM	> 100 µM	> 100 µM
Nc1ccc2c(=O)cc(-c3ccc(Br)s3)[nH]c2n1	> 22.1 µM	> 23.2 µM	1.29 µM	> 100 µM	> 100 µM	> 100 µM	> 100 µM	> 51.1 µM	> 100 µM	> 100 µM
O=C1C=CC2(O[C@H](C3CCCCC3)[C@@H](C3CCCCC3)O2)C(SC(=O)c2ccccc2)C1 (stereo not given in full)	15 µM	4.31 µM	7.2 µM	4.01 µM	5.08 µM	2.04 µM	18.4 µM	2.36 µM	5.89 µM	16.2 µM
CC(C)OP(=O)(OC(C)C)C(C(C)C)N(C)C(N)=NC#N (stereo not given)	> 100 µM	> 100 µM	> 100 µM	> 100 µM	> 100 µM	> 100 µM	> 100 µM	> 100 µM	> 100 µM	> 100 µM
